Earlier results as cited in patent publication US12124166B2, “Negative resist formulation for producing undercut pattern profiles” (Merck Patent GmbH, priority 2017, dated 2024).

Conditions: for pKa in water: stated in the Materials descriptions of commercial quenchers; for pKa (Quencher's pKa values): Table 9

| SMILES | pKa in water | pKa (Quencher's pKa values) |
| --- | --- | --- |
| CCCCCCCCCCCCCCCCCC1=NCCN1CCO [Addi-MC, 2-(2-heptadecyl-4,5-dihydro-1H-imidazol-1-yl)ethan-1-ol] | ~10.08 |  |
| CCN(C(C)C)C(C)C [N,N diisopropylethylamine] |  | 10.98 |
| OCCn1ccnc1 [IA, 1-(2-hydroxyethylimidazole)] | ~6.78 | 6.78 |
| c1ccc(N(c2ccccc2)c2ccccc2)cc1 [DPA, triphenylamine] | ~−3.04 | −3.04 |
| CC(C)c1cccc(C(C)C)c1N [DIPA, 2,6-diisopropylaniline] | ~4.25 | 4.25 |
| CCCN(C)CCC [N-Methyldipropylamine] |  | 9.91 |
| CCc1ncc[nH]1 [2EI, 2-Ethylimidazole] | ~8.22 | 8.22 |
| COCCOCCN(CCOCCOC)CCOCCOC [MNNE, 2-(2-methoxyethoxy)-N,N-bis[2-(2-methoxyethoxy)ethyl]-Ethanamine] | ~6.92 | 6.92 |
